Source: publication PMC7332481, “Ecotoxicity screening evaluation of selected pharmaceuticals and their transformation products towards various organisms” (Environmental Science and Pollution Research International, 2020)
≈ marks a conversion by molar mass, not a printed value. Where two headings read alike, the source gives them in different places.

Assays:
Raphidocelis subcapitata = test: R. subcapitata reproduction (growth) inhibition test; type: cell-based; conditions: Raphidocelis subcapitata; for inhibition at 100 µg/mL / inhibition at 5 µg/mL: read-out: Growth inhibition of R. subcapitata; for EC50: 72 h, growth inhibition by cell counts, read-out: EC50 R. subcapitata (with confidence interval 2.5–97.5%)
Method: (§1) All tests were carried out in accordance with the OECD or ISO guidelines. In general the experimental part was divided into three main steps: (i) determination of the toxicity of the native forms of pharmaceuticals (their racemic mixtures), (ii) toxicity evaluation of the selected TPs of these pharmaceuticals, and (iii) preliminary toxicity assessment of the enantiomers of selected pharmaceuticals. For each assay, range-finding tests were conducted, in order to determine the range of concentrations for the definitive tests. The main tests were repeated three times in at least two parallel replicates, with a minimum of five concentrations for native forms of the selected pharmaceuticals (including their enantiomers). The exact number of replicates and concentrations tested was included in the description of each test. […] However, TPs were tested in a different manner; first, the tests were carried out at the limit concentration of 100 mg L^−1. […] Such approach was applied in order to observe the relative toxicity of the selected TP and its native form.
(§2) Dose-response curves were fitted using a linear logistic or logistic model (the model giving the best fit was chosen) (https://cran.r-project.org/web/packages/drfit/drfit.pdf). The mathematic formulas applied for this purpose are presented and described in the Supplementary Material. The EC50 values were given since log EC50 is a model parameter in the logistic as well as in linear logistic model.
Test organisms were provided from Algal Culture Collection (Universität Göttingen, Germany). […] The light-dark cycle was different from the OECD guidelines, and it was introduced to imitate natural growth conditions. In order to ensure that the algae are in the exponential growth phase when used to inoculate the test solutions, the stock culture was diluted three times a week. The test was carried out in 25 mL suspension cell culture flasks (Nunc) (working volume 10 mL). All operations were performed under sterile conditions. The initial cell concentration was 5 × 10^4 cells mL^−1. Eight different concentrations of every compound in three replicates and a minimum of six controls were used in each test. […] The test flasks were incubated on a shaker with a speed of approx. 75 rpm at the temperature and light conditions described above. Growth inhibition was calculated using the cell counts of the treated samples in relation to the untreated controls after 72 h of exposure. The cells were counted with the use of CASY TT Cell counter & analyzer.

Lemna minor = test: L. minor growth inhibition test; conditions: for EC50: 168 h, read-out: EC50 L. minor (with confidence interval 2.5–97.5%), growth rate inhibition by frond area, 7 days; for toxicity to L. minor: highest tested concentration (100 mg L^−1)
Method: as §1, §2
One week before the assay, the inoculum cultures were prepared; eight healthy plants were placed into a new portion of the medium. Two days before the test, the plants were transferred to a fresh medium, in order to supplement nutrients and to eliminate plant metabolites. The experiments were performed in six-well plates under the conditions described above. The pH value of the Steinberg medium and all solutions was 5.5 (± 0.5). Every test included six different concentrations of compound and six controls in three replicates. The test started with one plant consisting of three fronds and the measured endpoint was the inhibition of growth rate determined by comparing the frond area (mm^2) for the treated plants and untreated controls.

Vibrio fischeri = test: microbe, parasite or virus in culture; type: cell-based; conditions: for EC50: 0.5 h, luminescence inhibition, 30 min, 15 °C, read-out: EC50 V. fischeri (with confidence interval 2.5–97.5%)
Method: (§3) Stock solutions and dilutions were prepared in 2% NaCl in 0.02 M phosphate buffer, pH 7. The freeze-dried bacteria were rehydrated prior to testing in a reactivation solution. Culture suspensions and diluted samples were pre-incubated at 15 °C for 15 min. After the initial luminescence was measured, 0.5 mL of the culture suspension was mixed with the same volume of a diluted sample. The final bioluminescence was measured after 30 min. Incubation was kept at 15 °C (LUMIStox 300 meter, Dr. Lange GmbH, Berlin, Germany). The relative toxicity of the samples was expressed as a percentage of luminescence inhibition compared to the controls.
as §3, with “m,” for “meter,”

Daphnia magna = test: D. magna acute immobilization test; type: in vivo; conditions: Daphnia magna; for mortality at 100 µg/mL: concentration 100 mg L^−1; for EC50: immobilization, 48 h, read-out: EC50 D. magna (with confidence interval 2.5–97.5%); for mortality at 40 µg/mL / mortality at 70 µg/mL: read-out: Immobilization
Method: as §1, §2
Five pre-fed test organisms were incubated with the studied compounds diluted in 10 mL of test media in glass test vessels at 20 °C (± 1 °C) in darkness for 48 h. Each test consisted of a control and five different concentrations of the studied compound in four parallel replicates. In order to achieve a full dose-response relationship, the concentration series covered the range of 0–100% immobilization. The number of immobilized or dead organisms was checked after 24 and 48 h. The negative effect of exposure to the tested compounds was expressed by the number of immobilized organisms compared to the controls.

Arthrobacter globiformis = test: A. globiformis dehydrogenase inhibition test (version without soil); conditions: read-out: EC50 A. globiformis
Method: as §1
The test strain was obtained from the German Collection of Microorganisms (DSMZ). A version of the test without soil was performed. Bacteria was grown in a sterile medium containing 10 g L^−1 peptone from casein, 5 g L^−1 yeast extract, 5 g L^−1 glucose, and 5 g L^−1 NaCl. For the test, the medium was diluted in a ratio of 1:3 in water. The inoculum was the bacteria in a log-growth phase. Cell density was adjusted to 1 × 10^8 cells mL^−1, which corresponds to an optical density (OD600nm) of 0.4. The test was performed in 24-well microplates. Each well contained 1 mL of solution of the tested compound in water and 1 mL of bacterial inoculum. Next, the plates were incubated for 2 h at 30 °C on a horizontal shaker with a speed of 100 rpm. To each well, a portion of 0.6 mL of the redox active dye resazurine (45 mg L^−1) dissolved in buffer was added. The microplates were further incubated for 1 h (30 °C, 100 rpm). To stop the reduction process, the plates were centrifuged at 3600g for 10 min. Aliquots (300 μl) of supernatant from each well were immediately transferred to the wells of a 96-well microplate in triplicates. Finally, the dehydrogenase activity was determined by measuring the formation of resorufin from resazurine using a fluorimeter ([…]). Dehydrogenase inhibition was calculated using Eq. 1.
where FBTS is the measured fluorescence of the blank (medium) with the tested substance, FTS is the measured fluorescence of the sample, FBNC is the measured fluorescence of the blank, and FNC is the measured fluorescence of the negative control (with bacteria).

aquatic organisms = conditions: for the organisms named in the sentence
[1] = Lemna minor, read-out: Growth inhibition of L. minor
[2] = Aliivibrio fischeri, concentration 100 mg L^−1, read-out: Luminescence inhibition
[3] = Aliivibrio fischeri, read-out: Luminescence inhibition

SMILES: NC(=O)N1c2ccccc2C2OC2c2ccccc21 (stereo not shown) [CRB-Ep, Carbamazepine 10,11-epoxide]
- inhibition at 100 µg/mL (Raphidocelis subcapitata; concentration 100 mg L^−1): 37%
- inhibition at 50 µg/mL (Lemna minor; [1]): 32%
- inhibition at 100 µg/mL (Vibrio fischeri; [2]): 30%
- mortality at 100 µg/mL (Daphnia magna): 0%

SMILES: CC(C)Cc1ccc([C@H](C)C(=O)O)cc1 [IBU Isomer S, S-ibuprofen]
- EC50 (Raphidocelis subcapitata): 26.6 µg/mL (≈ 129 µM)
- EC50 (Lemna minor; Lemna minor): 26.3 µg/mL (≈ 128 µM)
- EC50 (Daphnia magna): 63.1 µg/mL (≈ 306 µM)

SMILES: CC(C)Cc1ccc(C(C)C(=O)O)cc1 (stereo not shown) [IBU, Ibuprofen]
- EC50 (Raphidocelis subcapitata): 93.3 µg/mL (≈ 452 µM)
- inhibition at 100 µg/mL (Raphidocelis subcapitata; concentration 100 mg L^−1): 52%
- EC50 (Lemna minor; Lemna minor): 13.2 µg/mL (≈ 64.2 µM)
- inhibition at 15 µg/mL (Lemna minor; [1]): 54%
- inhibition at 10 µg/mL (Vibrio fischeri; Aliivibrio fischeri, concentration 10 mg L^−1, read-out: Luminescence inhibition): 42%
- EC50 (Arthrobacter globiformis): > 100 µg/mL
- mortality at 50 µg/mL (Daphnia magna; concentration 50 mg L^−1): 52%
- EC50 (Daphnia magna): 50.1 µg/mL (≈ 243 µM)

SMILES: COCCc1ccc(OCC(O)CNC(C)C)cc1 (stereo not shown) [MET, Metoprolol]
- EC50 (Raphidocelis subcapitata): 35.6 µg/mL (≈ 133 µM)
- inhibition at 100 µg/mL (Raphidocelis subcapitata; concentration 100 mg L^−1): 90%
- EC50 (Lemna minor; Lemna minor): > 100 µg/mL
- inhibition at 100 µg/mL (Lemna minor; [1]): 5%
- EC50 (Vibrio fischeri; Aliivibrio fischeri): > 100 µg/mL
- inhibition at 100 µg/mL (Vibrio fischeri; [2]): 3%
- EC50 (Arthrobacter globiformis): > 100 µg/mL
- mortality at 100 µg/mL (Daphnia magna): 4%
- EC50 (Daphnia magna): > 100 µg/mL

SMILES: CC(C)NCC(O)COc1ccc(CC(=O)O)cc1 (stereo not shown) [MET-ACID, Metoprolol acid]
- inhibition at 100 µg/mL (Raphidocelis subcapitata; concentration 100 mg L^−1): 0%
- inhibition at 100 µg/mL (Lemna minor; [1]): 5%
- toxicity to L. minor (Lemna minor): non-toxic
- inhibition at 100 µg/mL (Vibrio fischeri; [2]): 0%
- mortality at 100 µg/mL (Daphnia magna): 0%

SMILES: CC(=O)Nc1ccc(S(=O)(=O)Nc2cc(C)on2)cc1 [N4-SMZ, N^4-Acetylsulfamethoxazole]
- inhibition at 5 µg/mL (Raphidocelis subcapitata): 27%
- inhibition at 3 µg/mL (Lemna minor; [1]): 17%
- toxic effect / risk to V. fischeri (Vibrio fischeri): negligible
- inhibition at 50 µg/mL (Vibrio fischeri; [3]): 8%
- mortality at 40 µg/mL (Daphnia magna): 0%

SMILES: CC(C(=O)O)c1ccc2cc(O)ccc2c1 (stereo not shown) [O-DES-NAP, O-Desmethylnaproxen]
- inhibition at 25 µg/mL (Vibrio fischeri; Aliivibrio fischeri, concentration 25 mg L^−1, read-out: Luminescence inhibition): 20%
- mortality at 70 µg/mL (Daphnia magna; concentration 70 mg L^−1): 0%

SMILES: CN(C)CC1CCCCC1(O)c1cccc(O)c1 (stereo not shown) [O-DES-TRA, O-Desmethyltramadol]
- inhibition at 100 µg/mL (Raphidocelis subcapitata): 35%
- inhibition at 100 µg/mL (Lemna minor; [1]): 0%
- toxicity to L. minor (Lemna minor): non-toxic
- inhibition at 100 µg/mL (Vibrio fischeri; [3]): 0%
- mortality at 70 µg/mL (Daphnia magna): 8%

SMILES: Cc1cc(NS(=O)(=O)c2ccc(N)cc2)no1 [SMZ, Sulfamethoxazole]
- inhibition at 5 µg/mL (Raphidocelis subcapitata; concentration 5 mg L^−1): 43%
- classification on the basis of EC50 values (EC 93/67/EEC) (aquatic organisms): toxic to aquatic organisms (1–10 mg L^−1 are “toxic to aquatic organisms”)
- inhibition at 3 µg/mL (Lemna minor; [1]): 49%
- EC50 (Vibrio fischeri; Aliivibrio fischeri): 51.8 µg/mL (≈ 204 µM)
- inhibition at 50 µg/mL (Vibrio fischeri; Aliivibrio fischeri, concentration 50 mg L^−1, read-out: Luminescence inhibition): 46%
- EC50 (Arthrobacter globiformis): > 100 µg/mL
- mortality at 40 µg/mL (Daphnia magna; concentration 40 mg L^−1): 48%
- EC50 (Daphnia magna): 42.7 µg/mL (≈ 169 µM)
